Data: patent US11576913B2 (priority 2018, dated 2023)
“Also recorded” adds a separate entry of the source.

Test system: healthy, non-dependent, recreational sedative users
Assay: Human abuse potential study, Drug Liking VAS
Format: in vivo
Settings: for Drug Liking VAS - EMAX LSMean: N = 50, 100 point bipolar scale
Procedure: This study was designed as a randomized, single-dose, double-blinded, double dummy, crossover study. The study population was healthy, nondependent recreational polydrug users with a history of Central Nervous System (CNS) depressant use.
Subjects were screened no more than 28 days before check-in of period 1. Study drug was administered in each period according to the study randomization schedule. During Qualification, there was a minimum 24 hour washout period between each study drug administration. During the Treatment phase, there was a minimum 48-hour washout period between each study drug administration. Subjects were confined to the unit the day prior to, and for at least approximately 24 hours following, study drug administration during each period. If subjects were discharged between treatment periods, subjects returned to the unit the day prior to dosing.
The Qualification Phase was designed to ensure that polydrug abusing subjects with self-reported recreational CNS depressant/sedative drug experience were able to tolerate and discriminate between orally administered triazolam tablets and placebo as well as to report positive subjective effects of the drug in a controlled laboratory setting. This phase was also used to exclude “placebo responders”, i.e., subjects who report subjective effects of placebo. This phase also helped familiarize subjects with, and trained them in the use of, various scales and questionnaires that measure subjective effects.
The comparators in an abuse potential study are typically controlled substances from the same pharmacologic class as the investigational drug. However, Compound (1C) is a novel drug class for which no controlled substances/drugs of abuse are available for comparison. […] There was no evidence of other effects of interest to abusers, such as perceptual disturbances or stimulation. […] Placebo control was used to establish the frequency and magnitude of changes in clinical endpoints that may occur in the absence of active treatment as well as to minimize subject and investigator bias.
In all of the study phases, treatments were blinded to the greatest extent possible to reduce potential bias during data collection and evaluation of clinical endpoints. Because study subjects were recreational drug users and familiar with the effects of the drug substances being studied, the double-dummy technique was be used in the Treatment Phase to maintain blinding. Subjects received tablets orally in each treatment period. Placebo was matched in size and shape to each of the tablet types, and a method to blind subjects will be employed.
For each phase, subjects received treatments according to the randomization schema. During the Treatment Phase, subjects were be randomized to 1 of sequences in a 6×6 Williams square crossover design.
Compound (1C) was administered orally in an immediate release tablet comprising the pharmaceutically acceptable excipients croscarmellose sodium (FMC Health and Nutrition, Philadelphia, Pa.), hydroxypropylcellulose (Ashland Inc., Covington, Ky.), microcrystalline cellulose (Dupont, Chicago, Ill.), mannitol (SPI Pharma, Wilmington, Del.), magnesium stearate (PlusPharma Inc., Vista, Calif.), and sodium lauryl sulfate (BASF Corp, Upper St. Clair, Pa.). […] Placebo tablets matching the Compound (1C) tablets were orally administered in the same way. The placebo tablets comprised the above-described pharmaceutically acceptable excipients but with no Compound (1C). Triazolam was administered at a dose of 0.5 or 1 mg. Trial endpoints are provided below.
Peak Maximum Effect (Emax) for Drug Liking (“at this moment”) visual analog scale (“VAS”), was measured by study participants providing a score on a 100 point bipolar scale with 100 as strong liking, 50 as the neutral point of neither liking nor disliking, and 0 as strong disliking. […]

O=C(O)c1nc2ccccc2n([C@H]2C[C@H]3CCC[C@@H](C2)N3C2CC3CCCC(C3)C2)c1=O (stereo partly drawn) [Compound (1C)]
Drug Liking VAS - EMAX Diff from Placebo LSMean (1 mg): 3.0 points | Drug liking compared with Triazolam 0.5 and 1 mg (1 mg): statistically smaller; also recorded: statistically less; also recorded: (1C) 1 mg was significantly lower than | Drug liking compared with placebo (words) (1 mg): not significantly greater than placebo; also recorded: placebo was similar to placebo (upper bound | Drug Liking VAS - EMAX LSMean (1 mg single oral dose): 58.1 | Drug Liking VAS - EMAX Diff from Placebo LSMean (6 mg): 17.7 points | Drug liking compared with Triazolam 0.5 and 1 mg (6 mg): not statistically different | Drug liking compared with placebo (words) (6 mg): greater drug liking than placebo; also recorded: significantly greater | Drug Liking VAS - EMAX LSMean (6 mg single oral dose): 72.82 | Drug Liking VAS - EMAX Diff from Placebo LSMean (10 mg): 21.2 points | Drug liking compared with Triazolam 0.5 and 1 mg (10 mg): not statistically different | Drug liking compared with placebo (words) (10 mg): greater drug liking than placebo; also recorded: significantly greater | Drug Liking VAS - EMAX LSMean (10 mg single oral dose): 76.4 | Drug Liking VAS - EMAX, Triazolam 0.5 mg - Cmpd. (1C) LSMean (Cmpd. (1C) 1 mg): 17.4 | Drug Liking VAS - EMAX, Triazolam 1 mg - Cmpd. (1C) LSMean (Cmpd. (1C) 1 mg): 20.5 | Drug Liking VAS - EMAX, Triazolam 0.5 mg - Cmpd. (1C) LSMean (Cmpd. (1C) 6 mg): 2.7 | Drug Liking VAS - EMAX, Triazolam 1 mg - Cmpd. (1C) LSMean (Cmpd. (1C) 6 mg): 5.8 | Drug Liking VAS - EMAX, Triazolam 0.5 mg - Cmpd. (1C) LSMean (Cmpd. (1C) 10 mg): −0.8 | Drug Liking VAS - EMAX, Triazolam 1 mg - Cmpd. (1C) LSMean (Cmpd. (1C) 10 mg): 2.3
